Source: the supplement of paper PMC12317010
Where a name gives a salt, the structure may show the parent alone.

Assay: collision cross section in nitrogen (drift tube, single-field); higher = larger gas-phase ion size
[1] = ion type: [M+H], ion source: APCI, ion mode: Positive
[2] = ion type: [M+H], ion source: ESI, ion mode: Positive
[3] = ion type: [M+Na], ion source: ESI, ion mode: Positive
[4] = ion type: [M-H], ion source: ESI, ion mode: Negative
[5] = ion type: [M+], ion source: APCI, ion mode: Positive
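Further: chemical standards at 10 µM analysed by drift tube IMS-QTOF MS in about 3.95 torr nitrogen, mean of duplicate injections differing ≤1%, mass error below 10 ppm.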

Structure (SMILES) | collision cross section in nitrogen [1] [Å²] | collision cross section in nitrogen [2] [Å²] | collision cross section in nitrogen [3] [Å²] | collision cross section in nitrogen [4] [Å²] | also measured
CCCCCCCCCCCC(=O)NCCCN(C)C [N-[3-(Dimethylamino)propyl]dodecanamide] | 185.5 | 185.2 | 181.8 | – | –
Oc1cc(Cl)ccc1Cl [2,5-Dichlorophenol] | – | – | – | 123.3 | –
Nc1ccc(N=Nc2ccccc2)c(N)n1 [Phenazopyridine hydrochloride] | 150 | 150.3 | – | 148.1 | –
Nc1ccn([C@@H]2O[C@H](CO)[C@@H](O)[C@@H]2O)c(=O)n1 [Cytarabine] | – | – | 156.9 | – | –
c1cnc2c(n1)CCCC2 [5,6,7,8-Tetrahydroquinoxaline] | 126.6 | – | – | – | –
O=c1c(O)c(-c2ccc(O)c(O)c2)oc2cc(O)cc(O)c12 [Quercetin] | – | – | – | 164.7 | –
CNC(=O)ON=CC(C)(C)S(C)=O (stereo not drawn) [Aldicarb sulfoxide] | – | – | 147.4 | – | –
CO/C=C(/C(=O)OC)c1ccccc1Oc1cc(Oc2ccccc2C#N)ncn1 [Azoxystrobin] | 196.5 | 195 | 199 | – | –
CC(=O)O[C@]1(C(C)=O)CC[C@H]2[C@@H]3C[C@H](C)C4=CC(=O)CC[C@]4(C)[C@H]3CC[C@@]21C [Medroxyprogesterone acetate] | – | – | 212.7 | – | –
N#Cc1ccccc1N [2-Aminobenzonitrile] | – | – | – | 118 | –
O=C(O)C1(C(=O)Nc2ccc(Cl)cc2Cl)CC1 [Cyclanilide] | – | – | – | 156.3 | –
CCCCC(CC)C(=O)OC(C)C (stereo not drawn) [Propan-2-yl 2-ethylhexanoate] | – | – | – | 151.3 | –
CCc1nc(N)nc(N)c1-c1ccc(Cl)cc1 [Pyrimethamine] | 158.8 | 159.4 | – | – | –
CC(=O)NCc1ccccc1 [N-Benzylacetamide] | – | – | – | 135.1 | –
C#C[C@]1(O)CC[C@H]2[C@@H]3CCC4=CC(=O)CC[C@@H]4[C@H]3CC[C@@]21C [Norethindrone] | – | 178.1 | – | – | –
O=S(=O)(O)C(F)(F)C(F)(F)C(F)(F)C(F)(F)F [Perfluorobutanesulfonic acid] | – | – | – | 133.8 | –
C[C@]12CC[C@@H]3c4ccc(O)cc4CC[C@H]3[C@@H]1C[C@@H](O)[C@@H]2O [Estriol] | – | – | – | 178.1 | –
CC[C@H]1OC(=O)[C@H](C)[C@@H](O[C@H]2C[C@@](C)(OC)[C@@H](O)[C@H](C)O2)[C@H](C)[C@@H](O[C@@H]2O[C@H](C)C[C@H](N(C)C)[C@H]2O)[C@](C)(O)C[C@@H](C)C(=NOCOCCOC)[C@H](C)[C@@H](O)[C@]1(C)O [Roxithromycin] | 277.7 | 276.9 | 280.7 | 282.3 | collision cross section in nitrogen [5]: 276.3 Å²
CN1C(=O)c2ccccc2C1=O [N-Methylphthalimide] | 129 | – | – | – | –
Oc1c(Cl)cc(Cl)c(Cl)c1Cc1c(O)c(Cl)cc(Cl)c1Cl [Hexachlorophene] | – | – | – | 174.4 | –
CC(C)c1cccc(C(C)C)c1NC(=O)NS(=O)(=O)c1cc(C(C)(C)O)co1 | – | – | 207.5 | 199.5 | –

Structure (SMILES) | collision cross section in nitrogen [1] [Å²] | collision cross section in nitrogen [2] [Å²] | collision cross section in nitrogen [3] [Å²] | collision cross section in nitrogen [4] [Å²] | also measured
CCCCCCCCCc1ccc(O)cc1 [4-Nonylphenol] | – | – | – | 161.4 | –
O=C1CCCN1C1CCCCC1 [1-Cyclohexylpyrrolidin-2-one] | 139.2 | 140.3 | 157.7 | – | –
C#CC(C)(C)NC(=O)c1cc(Cl)cc(Cl)c1 [Propyzamide] | 157.9 | – | – | 157.3 | –
Cc1cc(C2(c3ccc(O)c(C)c3)C(=O)Nc3ccccc32)ccc1O [1,3-Dihydro-3,3-bis(4-hydroxy-m-tolyl)-2H-indol-2-one] | – | 185.4 | 196.6 | 190.8 | –
O=C(Nc1ccccc1SSc1ccccc1NC(=O)c1ccccc1)c1ccccc1 [2,2'-Dibenzoylaminodiphenyl disulfide] | 194.6 | 194 | 203 | 206 | –
CCCOC(=O)c1cc(O)c(O)c(O)c1 [Gallic acid n-propyl ester] | – | – | – | 146.5 | –
Oc1nc2ccccc2s1 [Benzothiazolone] | – | – | – | 123.7 | –
COCN(COC)c1nc(N(COC)COC)nc(N(COC)COC)n1 [Hexa(methoxymethyl)melamine] | – | – | 194.1 | – | –
NC(=O)N(O)[C@@H]1COc2cc(OCc3ccccc3)ccc21 | – | – | 165.5 | – | –
Cc1cc(O)ccc1Cl [4-Chloro-3-methylphenol] | – | – | – | 125.9 | –
CCOC(=O)NC(=S)Nc1ccccc1NC(=S)NC(=O)OCC [Thiophanate] | 187 | 186.6 | 189.6 | – | collision cross section in nitrogen [5]: 187.5 Å²
O=[N+]([O-])c1ccc(Nc2ccc(Nc3ccccc3)c(S(=O)(=O)O)c2)c([N+](=O)[O-])c1 [C.I. Acid Orange 3] | – | – | – | 204.4 | –
Cc1oc(C)c(C(=O)Nc2ccccc2)c1C [Methfuroxam] | 152.5 | 153.3 | – | – | –
CC(=O)CC(=O)Nc1ccc(S(=O)(=O)O)cc1 [Potassium 4-acetoacetylaminobenzenesulphonate] | – | – | – | 159.1 | –
Cc1cc(=O)nc(C(C)C)[nH]1 [2-Isopropyl-6-methyl-4-pyrimidone] | 133.9 | 132.5 | 146.4 | 135.5 | –
F[B-](F)(F)F [Sodium tetrafluoroborate] | – | – | – | – | collision cross section in nitrogen (ion source: ESI, ion mode: Negative, ion type: [M]- (permanent anion)): 101 Å²
CSc1nc(NC2CC2)nc(NC(C)(C)C)n1 [Cybutryne] | 162.8 | 162.4 | – | – | –
Nc1ccc([N+](=O)[O-])cc1Cl [2-Chloro-4-nitroaniline] | – | – | – | 126.1 | –
CCCCCOC(=O)COc1cc(N2C(=O)C3=C(CCCC3)C2=O)c(F)cc1Cl [Flumiclorac-pentyl] | – | – | 209.5 | 196.2 | –
O=C1c2ccccc2C(=O)c2c(O)c(O)cc(O)c21 [Purpurin] | – | – | – | 149 | –
Cc1cc(=O)[nH]c(=S)[nH]1 [6-Methyl-2-thiouracil] | – | – | – | 123.1 | –

Structure (SMILES) | collision cross section in nitrogen [1] [Å²] | collision cross section in nitrogen [2] [Å²] | collision cross section in nitrogen [3] [Å²] | collision cross section in nitrogen [4] [Å²] | also measured
Cc1c(C(=O)O)c(O)cc2c1C(=O)c1c(O)c([C@@H]3O[C@H](CO)[C@@H](O)[C@H](O)[C@H]3O)c(O)c(O)c1C2=O [Carminic acid] | – | 209.1 | 217.8 | 208.9 | –
OC(Cc1ccccc1Cl)(Cn1cncn1)C1(Cl)CC1 (stereo not drawn) | 167.3 | 167 | 184.1 | – | –
Cc1cc(C)cc(OCC2CNC(=O)O2)c1 (stereo not drawn) [Metaxalone] | – | – | 152.3 | – | –
Nc1nc(N)nc(-c2ccccc2)n1 [6-Phenyl-1,3,5-triazine-2,4-diamine] | 140.2 | 140.6 | – | – | –
O=C(NS(=O)(=O)/C=C/c1cccs1)c1ccc(F)cc1Br | – | – | 189 | 178 | –
CCCCCCCCCC(=O)OCC [Ethyl decanoate] | – | – | – | 154.6 | –
CCn1cc(C(=O)O)c(=O)c2cc3c(cc21)OCO3 [Oxolinic acid] | 152.6 | 152.3 | 165 | – | –
COc1ccc2cc(S(=O)(=O)N[C@H](CC(=O)N[C@H](Cc3ccc(CN4[C@H](C)CCC[C@@H]4C)cc3)C(=O)N(C)C(C)C)c3ccc4c(c3)OCO4)ccc2c1 | 266.1 | 267 | 277.4 | 271.5 | –
C1CC(COCC2CO2)CCC1COCC1CO1 (stereo not drawn) | – | – | 160.1 | – | –
Cc1cc(=O)oc2cc(N(C)C)ccc12 [7-(Dimethylamino)-4-methylcoumarin] | 140.9 | 141.3 | 165.6 | 148.6 | –
CCCCC(CC)COP(=O)(O)O (stereo not drawn) [2-Ethylhexyl dihydrogen phosphate] | – | – | – | 150.7 | –
Cc1cccc(OP(=O)(Oc2cccc(C)c2)Oc2cccc(C)c2)c1 [Phosphoric acid, tris(3-methylphenyl) ester] | 188.7 | 188.6 | 198.9 | – | –
COc1ccccc1OCC(O)COC(N)=O (stereo not drawn) [Methocarbamol] | – | – | 154.6 | – | –
CN(C)CCOC(C)(c1ccccc1)c1ccccn1 (stereo not drawn) [Doxylamine succinate] | 162 | – | – | – | –
COc1cc(NC(=O)CC(C)=O)c(OC)cc1Cl [4'-Chloro-2',5'-dimethoxyacetoacetanilide] | – | 160.8 | 168.5 | 161.1 | collision cross section in nitrogen [5]: 156.7 Å²
CCCCC(CC)COS(=O)(=O)O (stereo not drawn) [Sodium ethasulfate hydrate] | – | – | – | 150.1 | –
Clc1ccccc1CN1CCc2sccc2C1 [Ticlopidine hydrochloride] | 156.4 | 156.8 | – | – | –
CCOc1ccc(NC(N)=O)cc1 [Dulcin] | 144.5 | 144.1 | 149.7 | – | –
CN(C)C(=O)NC1(c2ccccc2)CCN(CCC[C@]2(c3ccc(Cl)c(Cl)c3)CCCN(C(=O)c3ccccc3)C2)CC1 | 252.9 | 252.5 | 256.5 | 246.6 | –
CCCN(C1CCN(C(=O)C2CCNCC2)CC1)[C@@H]1CCc2ccc(OC)cc2C1 | 209 | 199.1 | 201 | – | –
